Source: article PMC4917822, “pH-Selective Cytotoxicity of pHLIP-Antimicrobial Peptide Conjugates” (Scientific Reports, 2016)
Bridges are numbered along the chain shown (N, C = ends). Roman numbers before positions name the chains, in order. Where no end group is shown, it is not given here.

Columns and labels:
[1] = system: MDA-MB-231 breast cancer cells; experiment: Anti-proliferation assay (MTT) after 2 h treatment at pH 7.4 or 5.0; format: cell-based, Human; conditions: for enhancement of cytotoxicity of free peptide at low pH: pH 5.0, 10 μM; for enhancement of cytotoxicity of free peptide at low pH / cytotoxicity of free peptide at physiological pH: n = 9; for cytotoxicity of free peptide at physiological pH: pH 7.4, 72 h recovery
Procedure: We have previously shown that this treatment protocol and pHLIP alone have no effect on MDA-MB-231 cell viability.
Figure 2 Inhibition of cell growth. MDA-MB-231 cells treated with 4-amino acid pHLIP-KLAKS conjugates. Black columns represent cells treated at pH 7.4 and cells treated at low pH are shown in grey. For each condition, 3,000 cells/well (96-well plate) were seeded, allowed to adhere overnight, treated for 2 hours, washed once with media and cultured for 72 hour in complete medium at physiologic pH. Cell viability was assessed with the MTT assay. All measurements were normalized to the media control (0 μM, pH 7.4), as 100% cell viability. Results are shown as mean ± SEM (n = 9–12).
For each condition, 3,000 cells/well (96-well plate) were seeded, allowed to adhere overnight, treated for 2 hours, washed once with media and cultured for 72 hour in complete medium at physiologic pH. Cell viability was assessed with the MTT assay. All measurements were normalized to the media control (0 μM, pH 7.4), as 100% cell viability. Results are shown as mean ± SEM (n = 9–12). Data at pH 5.0 (A and B) were fitted with a sigmoidal dose-response using Prism 6 for Macintosh (GraphPad, Inc).
Figure 5 Effect of free peptides on cell viability. MDA-MB-231 cells were treated with 10 μM of either (KLAKLAK)2 (A) or KLAKLAK (B) at pH 7.4 (black circles) or pH 5.0 (grey squares) for 2 hours, washed once with media and cultured for 72 hours in complete medium at physiologic pH. Cell viability was assessed with the MTT assay, and all measurements were normalized to the media control (0 μM, pH 7.4), as 100% cell viability. Results are shown as mean ± SEM (n = 9).
Cells were seeded in 96-well plates at a density of 3,000 cells/well and incubated overnight. […] Treatment solutions were collected and their pH values measured using a micro-combination pH probe (Microelectrodes, Inc.). […] Cell viability was determined after 72 hours using the colorimetric MTT assay. Briefly, 10 μL of a 5 mg/mL MTT stock solution was added to the treated cells and incubated for 2 hours at 37 °C. The resulting formazan crystals were solubilized in 200 μL DMSO and the absorbance measured at 580 nm using an Infinite 200 PRO microplate reader (Tecan). Cell viability was calculated against control cells treated with media at physiologic pH. When needed, data were fitted with a sigmoidal dose-response using Prism 5 for Macintosh (GraphPad, Inc). […]
Figure S1. Effect of Free Peptides on Cell Viability and Plasma Membrane Integrity. For each condition, 3,000 cells/well (96-well plate) were seeded, incubated until confluent (~72 hours) and treated for 2 hours with 10 µM of free pHLIP(WT) or free tetrapeptides at pH 7.4 (black bars) and a low pH (grey bars). (A) Cell viability assay. After the 2-hour treatment, cells were washed once with media and cultured for 72 hour in complete medium at physiologic pH. Cell viability was assessed with the MTT assay. All measurements were normalized to the media control (0 µM, pH 7.4), as 100% cell viability. Results are shown as mean ± SEM (n=9-12). (B) After the 2-hour treatment, cells were detached and counted based on trypan blue uptake with an hemacytometer: % of intact cells corresponds to the number of cells not showing any dye uptake over the total number of cells. Results are shown as mean ± SD (n=3).

MDA-MB-231 cells [2] = experiment: Trypan Blue plasma membrane integrity assay; format: cell-based, Human; conditions: 10 μM, 2 h at pH 7.4 or pH 5.0, % intact cells counted with hemacytometer, mean ± SD, n = 3
Description: (§1) First, we assessed the effect of the conjugates on the integrity of cell membranes based on the uptake of Trypan Blue, which can be taken up by cells only if their plasma membrane is disrupted. […] We also measured the release of the intracellular enzyme lactate dehydrogenase (LDH) after peptide treatment, as another method to evaluate plasma membrane damage. […] Importantly, it was previously shown that neither pHLIP alone nor low pH treatments disrupts membranes, including that of MDA-MB-231 cells[20][23] (Figure S1).
(§2) Figure 4 Effect of free peptides and pHLIP-conjugates on Plasma Membrane Integrity and Lactate Dehydrogenase (LDH) Release. (A) The integrity of the plasma membrane is assessed by the uptake of trypan blue dye. […] Cells were detached and counted based on trypan blue uptake with an hemacytometer: % of intact cells corresponds to the number of cells not showing any dye uptake over the total number of cells. […] Cell media supernatant was monitored for the presence of LDH following treatment. […]
For the Trypan Blue plasma membrane integrity assays cells were seeded in 96-well plates at a density of 3,000 cells/well and incubated until confluent (~72 hours). […] After treatment, the media was removed, cells were detached using trypsin and counted based on trypan blue uptake using an hemacytometer. […] Percent LDH release was calculated against control cells treated with media at physiologic pH. […]

[3] = system: MDA-MB-231 breast cancer cells; conditions: cited from earlier work
MDA-MB-231 cells [4] = experiment: Lactate dehydrogenase (LDH) release assay; format: cell-based, Human; conditions: 10 μM free peptide, 2 h at pH 5.0
Description: as §1, §2
For the Trypan Blue plasma membrane integrity assays cells were seeded in 96-well plates at a density of 3,000 cells/well and incubated until confluent (~72 hours). […] After treatment, the media was removed, cells were detached using trypsin and counted based on trypan blue uptake using an hemacytometer. […] Percent LDH release was calculated against control cells treated with media at physiologic pH.

MDA-MB-231 cells [5] = experiment: Annexin V-Alexa Fluor 488 / MitoTracker Red dual staining by flow cytometry; format: cell-based, Human; conditions: for PS externalization (Annexin V) and loss of mitochondrial membrane potential (MitoTracker Red) at low pH / Annexin V / MitoTracker Red effects 6 hours post-treatment: 10 μM; for PS externalization (Annexin V) and loss of mitochondrial membrane potential (MitoTracker Red) at low pH: 2 h at pH 5.0, 24 h recovery, n = 3; for Annexin V / MitoTracker Red effects 6 hours post-treatment: 2 h at pH 7.4 or 5.0, 6 h recovery, n = 3 (Figure S3)
caspases 3 and 7 = conditions: MDA-MB-231; 10 μM; 2 h at pH 7.4 or 5.0; monitored at 24, 48 and 72 hours; fluorescence 485/530 nm; n = 3 (Figure S5)
Procedure: Before treatment, construct aliquots were solubilized in an appropriate volume of DMEM without FBS (pH 7.4) so that upon pH adjustment 10 μM is obtained. […]

In the case of “GGEQNPIYWARYADWLFTTPLLLLDLALLVDADEGTCG (H-GGEQNPIYWARYADWLFTTPLLLLDLALLVDADEGTCG-NH2) [pHLIP(WT)]”, the “effect of free peptide on cell viability (Figure S1A)” value ([1]; 10 μM free peptide, pH 7.4 and low pH, 72 h recovery, n = 9-12) is listed as “neither pHLIP(WT) nor the tetrapeptides has any significant harmful effects”, the “plasma membrane integrity (trypan blue uptake)” value (MDA-MB-231 cells [2]) is listed as “neither pHLIP(WT) nor the tetrapeptides has any significant harmful effects” and the “effect of pHLIP alone on MDA-MB-231 cell viability” value [3] is listed as “no effect”.
With “I: GGEQNPIYWARYADWLFTTPLLLLDLALLVDADEGTCG-NH2 / II: CKAAK-NH2 (disulfide I:37-II:1) [pHLIP-KAAK]” the “overall cell proliferation inhibition relative to the other 4-amino acid conjugates” value ([1]; low pH, 1.25–10 μM, 72 h recovery) was “lower than pHLIP-KGGK”.
With “CKLAKLAKKLAKLAK [(KLAKLAK)2, cationic antimicrobial peptide cargo, synthesized with N-terminal Cys, amidated C-terminus]” the “enhancement of cytotoxicity of free peptide at low pH” value ([1]; 72 h recovery) was “greatest enhancement”, the “cytotoxicity of free peptide at physiological pH” value [1] was “not significantly toxic” and the “LDH release 24 hours post-treatment at low pH” value (MDA-MB-231 cells [4]) was “some LDH release”. For the same compound, the “PS externalization (Annexin V) and loss of mitochondrial membrane potential (MitoTracker Red) at low pH” value (MDA-MB-231 cells [5]) was “largest effect” and the “Annexin V / MitoTracker Red effects 6 hours post-treatment” value (MDA-MB-231 cells [5]) was “no evidence of these effects”.
In the case of CKLAKLAK, the “enhancement of cytotoxicity of free peptide at low pH” value ([1]; 72 h recovery) is reported as “only a modest one”, the “cytotoxicity of free peptide at physiological pH” value [1] is reported as “not significantly toxic” and the “LDH release 24 hours post-treatment at low pH” value (MDA-MB-231 cells [4]) is reported as “some LDH release”. For the same compound, the “PS externalization (Annexin V) and loss of mitochondrial membrane potential (MitoTracker Red) at low pH” value (MDA-MB-231 cells [5]) was “only a modest one”, the “Annexin V / MitoTracker Red effects 6 hours post-treatment” value (MDA-MB-231 cells [5]) was “no evidence of these effects” and the “caspase 3/7 activation” value (caspases 3 and 7) was “neither treatments with pHLIP-KLAKLAK or KLAKLAK induces any significant caspase activation”.
With `CN[C@@H]1C[C@H]2O[C@@](C)([C@@H]1OC)n1c3ccccc3c3c4c(c5c6ccccc6n2c5c31)C(=O)NC4` [staurosporine, reference compound] the “Annexin V / MitoTracker Red population shift (positive control)” value (MDA-MB-231 cells [5]; 1 μM for 6 or 24 hours, n = 3 (Figure S4)) was “clear shift in cell population”.
